Data taken from patent US7198910B1, “Nucleic acid encoding melanin-concentrating hormone receptor” (Merck & Co., Inc., priority 1999, dated 2007).

How the values were obtained:
[1] = test system: endogenous Xenopus receptor; assay: Melanophore pigment aggregation control, endogenous melatonin response; type: cell-based, Xenopus laevis; conditions: stimulating the endogenous Xenopus receptor
Procedure: (§1) For Gi-coupled responses, cell monolayers plated in 96-well microtiter plates were incubated in the presence of 100 μl/well of 70% L-15 media containing 2% fibroblast-conditioned growth medium, 2 mM glutamine, 100 μg/ml streptomycin, 100 units/ml penicillin and 15 mM HEPES, pH 7.3, for 15 minutes in readings at 600 nm were determined, followed by the addition of ligands. After a 1.5 hour incubation in the dark at room temperature final absorbances were determined. Absorbance readings were converted to transmission values to quantitate pigment dispersion using the following formula: 1−Tf/Ti, where Ti=the initial transmission at 600 nm and Tf=the final transmission at 600 nm.
(§2) The Xenopus melanophore system (Daniolos, et al., 1992. Pigment Cell Res. 3, 38–43) is based on the dispersion and aggregation of intracellular pigment granules in response to changes in intracellular second messenger molecules. Agonist activation of a recombinant Gs- or Gq-coupled receptor expressed heterologously in melanophores leads to pigment dispersion. […] Changes in the melanophore pigmentation show a dose-dependent correlation with the level of specific receptor activation, and can be quantified by the change in absorbance at 600 nm between the nonactivated and agonist-activated cells (Daniolos, et al., 1992. Pigment Cell Res. 3, 38–43). […]

[2] = test system: endogenous melanophore thrombin receptor; assay: Pigment aggregation in mock (non-receptor) transfected melanophores; type: cell-based, Xenopus laevis; conditions: represents activation of endogenous thrombin receptor
Procedure: as §1, §2

Compound	Aggregation response (control) [1]	Pigment aggregation response in mock (non-receptor) transfected melanophores [2]
COc1ccc2[nH]cc(CCNC(C)=O)c2c1 [melatonin]	positive aggregation response	
thrombin		detected
